Measurements taken from the NIST ThermoML archive (doi:10.1007/s10765-011-0997-8).
Numbers after ± are expanded uncertainties.

Settings: 101.33 kPa, Liquid; for speed of sound: Linear variable-path acoustic interferometer; for mass density: Pycnometric method

Compound	speed of sound (298.15 K)	mass density (298.15 K)	mass density (308.15 K)
c1ccccc1 [benzene]	1298 ± 3 m/s	873.64 ± 0.46 kg/m3	–
Cc1ccc(C)cc1 [1,4-dimethylbenzene]	1310 ± 2 m/s	856.65 ± 0.28 kg/m3	–
C1CCOCC1 [tetrahydropyran]	1272 ± 3 m/s	–	868.81 ± 0.49 kg/m3
Cc1ccccc1C [1,2-dimethylbenzene]	1346 ± 2 m/s	875.9 ± 0.28 kg/m3	–
Cc1ccccc1 [toluene]	1303 ± 2 m/s	862.22 ± 0.31 kg/m3	–
